Laboratory results reported in article PMC10044120, “Potent and selective covalent inhibition of the papain-like protease from SARS-CoV-2” (Nature Communications, 2023).
Like-named read-outs stand apart in the source and are kept apart here.

How the values were obtained:
[1] = biological target: T1, SARS-CoV-2 PLpro (Severe acute respiratory syndrome coronavirus 2, UniProt P0DTD1); assay: biochemical; details: PLpro 10 nM, ISG15-CHOP2
[2] = biological target: T2, UCHL1 (Homo sapiens, UniProt P09936); assay: biochemical; details: UCHL1 10 nM, Ub-rhodamine110
T2 construct: purchased LifeSensors, Inc. (Malvern, PA)
T2 sequence (P09936 whole entry): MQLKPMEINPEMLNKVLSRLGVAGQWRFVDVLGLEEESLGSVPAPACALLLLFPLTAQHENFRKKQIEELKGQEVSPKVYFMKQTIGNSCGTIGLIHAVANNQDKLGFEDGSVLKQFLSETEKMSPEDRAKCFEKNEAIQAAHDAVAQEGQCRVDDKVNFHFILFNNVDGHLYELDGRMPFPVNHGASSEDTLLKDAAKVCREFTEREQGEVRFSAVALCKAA

[3] = biological target: PLpro from SARS-CoV-2 (Severe acute respiratory syndrome coronavirus 2, UniProt P0DTD1); assay: biochemical; type: biochemical; parameters: mean (kobs plot, Supplementary Figure 6 II): unit: min^-1
[4] = biological target: T3, USP2 (Homo sapiens, UniProt O75604); assay: biochemical; details: USP2 10 nM, Ub-rhodamine110
T3 construct: USP2c, USP4, USP7, USP8c, USP15, USP30WT, and UCH-L1; purchased LifeSensors, Inc. (Malvern, PA)
T3 sequence (O75604 267-599): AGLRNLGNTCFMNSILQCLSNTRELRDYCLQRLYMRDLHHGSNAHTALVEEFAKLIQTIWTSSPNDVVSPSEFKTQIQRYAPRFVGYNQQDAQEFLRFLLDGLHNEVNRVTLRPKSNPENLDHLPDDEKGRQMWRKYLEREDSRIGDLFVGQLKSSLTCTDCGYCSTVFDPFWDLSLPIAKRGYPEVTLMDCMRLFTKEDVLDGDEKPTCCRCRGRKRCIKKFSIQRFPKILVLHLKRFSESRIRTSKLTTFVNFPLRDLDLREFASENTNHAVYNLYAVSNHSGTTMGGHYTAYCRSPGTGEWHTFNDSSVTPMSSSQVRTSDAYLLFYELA

[5] = biological target: T4, USP7 (Homo sapiens, UniProt Q93009); assay: biochemical; details: USP7 5 nM, Ub-CHOP2
T4 construct: purchased LifeSensors, Inc. (Malvern, PA)
T4 sequence (Q93009 whole entry): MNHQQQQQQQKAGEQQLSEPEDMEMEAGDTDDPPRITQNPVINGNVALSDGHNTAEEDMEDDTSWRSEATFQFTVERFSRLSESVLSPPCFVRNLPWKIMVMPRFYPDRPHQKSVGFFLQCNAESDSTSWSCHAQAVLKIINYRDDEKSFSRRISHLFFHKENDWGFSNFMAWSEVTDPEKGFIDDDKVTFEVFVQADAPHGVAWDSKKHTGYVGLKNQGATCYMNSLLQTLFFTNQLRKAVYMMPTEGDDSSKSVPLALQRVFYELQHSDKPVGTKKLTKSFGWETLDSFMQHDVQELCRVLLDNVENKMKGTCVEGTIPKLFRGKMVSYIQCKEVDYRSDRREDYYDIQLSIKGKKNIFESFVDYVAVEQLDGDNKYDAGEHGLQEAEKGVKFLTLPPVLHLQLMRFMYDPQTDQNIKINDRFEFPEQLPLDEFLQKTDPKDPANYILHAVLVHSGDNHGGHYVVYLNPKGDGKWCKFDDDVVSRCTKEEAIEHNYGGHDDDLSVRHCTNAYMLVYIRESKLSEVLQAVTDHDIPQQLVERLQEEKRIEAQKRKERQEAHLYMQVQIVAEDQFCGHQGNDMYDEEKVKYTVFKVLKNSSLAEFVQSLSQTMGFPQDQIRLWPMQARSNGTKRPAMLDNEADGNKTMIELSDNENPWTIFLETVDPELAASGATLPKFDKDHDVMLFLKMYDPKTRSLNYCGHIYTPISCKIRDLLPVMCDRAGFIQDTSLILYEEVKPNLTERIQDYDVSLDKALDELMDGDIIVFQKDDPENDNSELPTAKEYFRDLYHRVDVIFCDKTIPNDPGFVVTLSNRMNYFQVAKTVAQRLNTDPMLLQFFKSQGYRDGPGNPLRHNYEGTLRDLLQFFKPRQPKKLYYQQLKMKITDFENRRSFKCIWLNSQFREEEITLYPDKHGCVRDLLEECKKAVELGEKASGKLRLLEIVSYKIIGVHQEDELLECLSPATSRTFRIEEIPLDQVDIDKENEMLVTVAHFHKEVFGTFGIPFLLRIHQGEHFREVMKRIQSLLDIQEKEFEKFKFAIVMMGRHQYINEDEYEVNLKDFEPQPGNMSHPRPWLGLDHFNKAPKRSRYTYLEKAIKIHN

[6] = biological target: T1, SARS-CoV-2 PLpro; assay: biochemical; details: PLpro 50 nM, Ub-rhodamine110
[7] = Metabolic stability in human liver microsomes
[8] = Metabolic stability in mouse liver microsomes; details: CD-1, mouse

C[C@@H](NC(=O)c1ccccc1CCC(=O)NNC(=O)CCl)c1cccc2ccccc12 [Compound 9, (R)-2-(3-(2-(2-chloroacetyl)hydrazineyl)-3-oxopropyl)-N-(1-(naphthalen-1-yl)ethyl)benzamide]
Hill slope [1]: 0.817 | IC50 [1]: 20.2 µM | IC50 [2]: > 30 µM | kinact/KI [3]: 110 M⁻¹ s⁻¹ | remaining activity at 1 µM ([3]; 5 min, read-out: PLpro activity after preincubation, inhibitor 1 uM, preincubation 5 min): 103% | remaining activity at 4 µM ([3]; 5 min, read-out: PLpro activity after preincubation, inhibitor 4 uM, preincubation 5 min): 97.6% | remaining activity at 5 µM ([3]; 5 min, read-out: PLpro activity after preincubation, inhibitor 5 uM, preincubation 5 min): 92.9% | remaining activity at 10 µM ([3]; 5 min, read-out: PLpro activity after preincubation, inhibitor 10 uM, preincubation 5 min): 78.5% | remaining activity at 15 µM ([3]; 5 min, read-out: PLpro activity after preincubation, inhibitor 15 uM, preincubation 5 min): 66.8% | remaining activity at 25 µM ([3]; 5 min, read-out: PLpro activity after preincubation, inhibitor 25 uM, preincubation 5 min): 57.8% | remaining activity at 30 µM ([3]; 5 min, read-out: PLpro activity after preincubation, inhibitor 30 uM, preincubation 5 min): 62% | remaining activity at 36 µM ([3]; 5 min, read-out: PLpro activity after preincubation, inhibitor 36 uM, preincubation 5 min): 57.3% | remaining activity at 1 µM ([3]; 10 min, read-out: PLpro activity after preincubation, inhibitor 1 uM, preincubation 10 min): 103% | remaining activity at 2 µM ([3]; 10 min, read-out: PLpro activity after preincubation, inhibitor 2 uM, preincubation 10 min): 93.2% | remaining activity at 5 µM ([3]; 10 min, read-out: PLpro activity after preincubation, inhibitor 5 uM, preincubation 10 min): 74% | remaining activity at 10 µM ([3]; 10 min, read-out: PLpro activity after preincubation, inhibitor 10 uM, preincubation 10 min): 53.4% | remaining activity at 15 µM ([3]; 10 min, read-out: PLpro activity after preincubation, inhibitor 15 uM, preincubation 10 min): 47.4% | remaining activity at 25 µM ([3]; 10 min, read-out: PLpro activity after preincubation, inhibitor 25 uM, preincubation 10 min): 38.1% | remaining activity at 30 µM ([3]; 10 min, read-out: PLpro activity after preincubation, inhibitor 30 uM, preincubation 10 min): 42.9% | remaining activity at 36 µM ([3]; 10 min, read-out: PLpro activity after preincubation, inhibitor 36 uM, preincubation 10 min): 38.6% | remaining activity at 2 µM ([3]; 20 min, read-out: PLpro activity after preincubation, inhibitor 2 uM, preincubation 20 min): 77.2% | remaining activity at 8 µM ([3]; 20 min, read-out: PLpro activity after preincubation, inhibitor 8 uM, preincubation 20 min): 39.6% | remaining activity at 1 µM ([3]; 0.5 h, read-out: PLpro activity after preincubation, inhibitor 1 uM, preincubation 30 min): 83.9% | remaining activity at 2 µM ([3]; 0.5 h, read-out: PLpro activity after preincubation, inhibitor 2 uM, preincubation 30 min): 68.5% | remaining activity at 4 µM ([3]; 0.5 h, read-out: PLpro activity after preincubation, inhibitor 4 uM, preincubation 30 min): 44.8% | remaining activity at 5 µM ([3]; 0.5 h, read-out: PLpro activity after preincubation, inhibitor 5 uM, preincubation 30 min): 40.6% | remaining activity at 8 µM ([3]; 0.5 h, read-out: PLpro activity after preincubation, inhibitor 8 uM, preincubation 30 min): 30.9% | remaining activity at 10 µM ([3]; 0.5 h, read-out: PLpro activity after preincubation, inhibitor 10 uM, preincubation 30 min): 31.6% | remaining activity at 15 µM ([3]; 0.5 h, read-out: PLpro activity after preincubation, inhibitor 15 uM, preincubation 30 min): 12.2% | remaining activity at 25 µM ([3]; 0.5 h, read-out: PLpro activity after preincubation, inhibitor 25 uM, preincubation 30 min): 10.3% | remaining activity at 30 µM ([3]; 0.5 h, read-out: PLpro activity after preincubation, inhibitor 30 uM, preincubation 30 min): 13.7% | remaining activity at 36 µM ([3]; 0.5 h, read-out: PLpro activity after preincubation, inhibitor 36 uM, preincubation 30 min): 12.5% | remaining activity at 1 µM ([3]; 1 h, read-out: PLpro activity after preincubation, inhibitor 1 uM, preincubation 60 min): 68.1% | remaining activity at 2 µM ([3]; 1 h, read-out: PLpro activity after preincubation, inhibitor 2 uM, preincubation 60 min): 42.3% | remaining activity at 4 µM ([3]; 1 h, read-out: PLpro activity after preincubation, inhibitor 4 uM, preincubation 60 min): 21.8% | remaining activity at 5 µM ([3]; 1 h, read-out: PLpro activity after preincubation, inhibitor 5 uM, preincubation 60 min): 16.1% | remaining activity at 8 µM ([3]; 1 h, read-out: PLpro activity after preincubation, inhibitor 8 uM, preincubation 60 min): 10.3% | remaining activity at 15 µM ([3]; 1 h, read-out: PLpro activity after preincubation, inhibitor 15 uM, preincubation 60 min): 7.87% | remaining activity at 25 µM ([3]; 1 h, read-out: PLpro activity after preincubation, inhibitor 25 uM, preincubation 60 min): 12.5% | remaining activity at 2 µM ([3]; 85 min, read-out: PLpro activity after preincubation, inhibitor 2 uM, preincubation 85 min): 29.8% | remaining activity at 2 µM ([3]; 110 min, read-out: PLpro activity after preincubation, inhibitor 2 uM, preincubation 110 min): 18% | remaining activity at 1 µM ([3]; […], read-out: PLpro activity after preincubation, inhibitor 1 uM, preincubation 15 min): 93.3% | remaining activity at 1 µM ([3]; […], read-out: PLpro activity after preincubation, inhibitor 1 uM, preincubation 45 min): 79.9% | remaining activity at 1 µM ([3]; […], read-out: PLpro activity after preincubation, inhibitor 1 uM, preincubation 90 min): 54% | remaining activity at 2 µM ([3]; […], read-out: PLpro activity after preincubation, inhibitor 2 uM, preincubation 45 min): 56.1% | remaining activity at 4 µM ([3]; […], read-out: PLpro activity after preincubation, inhibitor 4 uM, preincubation 15 min): 73.3% | remaining activity at 4 µM ([3]; […], read-out: PLpro activity after preincubation, inhibitor 4 uM, preincubation 45 min): 30.6% | remaining activity at 4 µM ([3]; […], read-out: PLpro activity after preincubation, inhibitor 4 uM, preincubation 90 min): 18.5% | remaining activity at 5 µM ([3]; […], read-out: PLpro activity after preincubation, inhibitor 5 uM, preincubation 15 min): 57.4% | remaining activity at 5 µM ([3]; […], read-out: PLpro activity after preincubation, inhibitor 5 uM, preincubation 45 min): 20.3% | remaining activity at 5 µM ([3]; […], read-out: PLpro activity after preincubation, inhibitor 5 uM, preincubation 90 min): 9.23% | remaining activity at 8 µM ([3]; […], read-out: PLpro activity after preincubation, inhibitor 8 uM, preincubation 45 min): 12.3% | remaining activity at 10 µM ([3]; […], read-out: PLpro activity after preincubation, inhibitor 10 uM, preincubation 15 min): 49.7% | remaining activity at 10 µM ([3]; […], read-out: PLpro activity after preincubation, inhibitor 10 uM, preincubation 45 min): 14.1% | remaining activity at 15 µM ([3]; […], read-out: PLpro activity after preincubation, inhibitor 15 uM, preincubation 15 min): 40.2% | remaining activity at 15 µM ([3]; […], read-out: PLpro activity after preincubation, inhibitor 15 uM, preincubation 45 min): 10.8% | remaining activity at 15 µM ([3]; […], read-out: PLpro activity after preincubation, inhibitor 15 uM, preincubation 90 min): 12.6% | remaining activity at 25 µM ([3]; […], read-out: PLpro activity after preincubation, inhibitor 25 uM, preincubation 15 min): 17.8% | remaining activity at 25 µM ([3]; […], read-out: PLpro activity after preincubation, inhibitor 25 uM, preincubation 90 min): 10.7% | remaining activity at 30 µM ([3]; […], read-out: PLpro activity after preincubation, inhibitor 30 uM, preincubation 15 min): 29.9% | remaining activity at 30 µM ([3]; […], read-out: PLpro activity after preincubation, inhibitor 30 uM, preincubation 45 min): 6.98% | remaining activity at 36 µM ([3]; […], read-out: PLpro activity after preincubation, inhibitor 36 uM, preincubation 15 min): 18% | remaining activity at 36 µM ([3]; […], read-out: PLpro activity after preincubation, inhibitor 36 uM, preincubation 45 min): 6.34% | Time dep. (time-dependent inhibition) ([3]; fluorogenic peptide assay, varied preincubation time): Yes | mean (kobs plot, Supplementary Figure 6 II) ([3]; inhibitor 1 uM): 0.0070 | mean (kobs plot, Supplementary Figure 6 II) ([3]; inhibitor 2 uM): 0.0147 | mean (kobs plot, Supplementary Figure 6 II) ([3]; inhibitor 4 uM): 0.0210 | mean (kobs plot, Supplementary Figure 6 II) ([3]; inhibitor 5 uM): 0.0344 | mean (kobs plot, Supplementary Figure 6 II) ([3]; inhibitor 8 uM): 0.0503 | mean (kobs plot, Supplementary Figure 6 II) ([3]; inhibitor 10 uM): 0.0558 | mean (kobs plot, Supplementary Figure 6 II) ([3]; inhibitor 13 uM): 0.0770 | mean (kobs plot, Supplementary Figure 6 II) ([3]; inhibitor 15 uM): 0.0658 | mean (kobs plot, Supplementary Figure 6 II) ([3]; inhibitor 25 uM): 0.0896 | mean (kobs plot, Supplementary Figure 6 II) ([3]; inhibitor 30 uM): 0.0802 | mean (kobs plot, Supplementary Figure 6 II) ([3]; inhibitor 36 uM): 0.0968 | IC50 [4]: > 30 µM | IC50 [5]: > 30 µM | Hill slope [6]: 0.705 | IC50 [6]: 1.96 µM | half-life [7]: 7 min | microsomal CLint [7]: 975 µL/min/mg | half-life [8]: 5 min | microsomal CLint [8]: 1330 µL/min/mg
